Measured values reported in patent US9701680B2, “Pyrimidine and pyridine compounds and their usage” (HUTCHISON MEDIPHARMA LIMITED, priority 2013, dated 2017).
Read-outs that look alike come from different tables or passages of the source.

Tests used:
[1] = tested on: KG-1; test: Cellular Proliferation Assay (Cell Counting Kit-8), KG-1; format: cell-based; conditions: Homo sapiens; KG-1 cells, 72 hours; read-out: KG1 IC50
Procedure, shortened: (§1)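 Seeding per well: KG-1 30000, SNU-16 5000, RT-112 1000 cells. After 24 h an 8-point series (working dilutions 10 to 0.004 μM in 5% DMSO) was added for 72 h at 37 °C, 5% CO2. CCK-8 OD450 after 1 h, corrected for media background and normalised to untreated cells, gave IC50.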

[2] = target: FGFR3 kinase (Homo sapiens, UniProt P22607); test: Z-Lyte Kinase Assay of FGFR3; format: biochemical
Procedure, shortened: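 Z-LYTE FRET assay, kinase 0.7 μg/ml with Tyr 4 peptide 4 μM (P/K solution), ATP diluted to 300 uM in 1.33× buffer; compound final 1 to 0.00046 μM, 2% DMSO.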

[3] = tested on: RT-112; test: Cellular Proliferation Assay (Cell Counting Kit-8), RT-112; format: cell-based; conditions: Homo sapiens; RT-112 cells, 72 hours
Procedure, shortened: as §1

[4] = tested on: SNU-16; test: Cellular Proliferation Assay (Cell Counting Kit-8), SNU-16; format: cell-based; conditions: Homo sapiens; SNU-16 cells, 72 hours
Procedure, shortened: as §1

[5] = target: Recombinant human FGFR1 (Homo sapiens, UniProt P11362); test: Transcreener Kinase Assay of FGFR1; format: biochemical
Procedure, shortened: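 Recombinant human FGFR1 was reacted with Poly E4Y substrate and ATP for 45 min at 28 °C, with compounds at 1 to 0.0005 µM in 1% DMSO final. Inhibition is relative to the DMSO control, with IC50 from a curve fit.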

[6] = target: Recombinant human FGFR2 (Homo sapiens, UniProt P21802); test: Transcreener Kinase Assay of FGFR2; format: biochemical
Recombinant human FGFR2, sequence (P21802 22-821): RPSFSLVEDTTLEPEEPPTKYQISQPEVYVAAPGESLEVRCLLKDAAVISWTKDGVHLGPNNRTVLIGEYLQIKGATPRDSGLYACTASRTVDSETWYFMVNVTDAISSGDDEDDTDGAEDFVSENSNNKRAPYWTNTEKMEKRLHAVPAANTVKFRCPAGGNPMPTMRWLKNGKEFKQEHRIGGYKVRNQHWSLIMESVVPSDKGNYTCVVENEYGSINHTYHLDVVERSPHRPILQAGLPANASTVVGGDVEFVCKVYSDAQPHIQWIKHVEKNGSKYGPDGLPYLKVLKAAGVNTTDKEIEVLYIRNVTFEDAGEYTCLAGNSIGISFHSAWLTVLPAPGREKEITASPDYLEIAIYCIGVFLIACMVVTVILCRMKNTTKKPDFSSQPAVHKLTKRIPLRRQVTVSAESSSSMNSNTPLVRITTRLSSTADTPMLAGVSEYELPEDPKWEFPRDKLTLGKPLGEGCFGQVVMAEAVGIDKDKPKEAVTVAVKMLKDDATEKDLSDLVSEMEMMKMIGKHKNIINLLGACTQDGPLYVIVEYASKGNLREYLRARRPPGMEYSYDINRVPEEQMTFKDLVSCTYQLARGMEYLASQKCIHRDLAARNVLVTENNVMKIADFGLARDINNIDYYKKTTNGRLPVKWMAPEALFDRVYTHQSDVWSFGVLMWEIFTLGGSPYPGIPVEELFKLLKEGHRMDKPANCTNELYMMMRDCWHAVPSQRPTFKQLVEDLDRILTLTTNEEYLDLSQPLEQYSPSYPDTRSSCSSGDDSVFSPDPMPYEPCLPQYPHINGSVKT

Recombinant human FGFR1, sequence (P11362 22-822): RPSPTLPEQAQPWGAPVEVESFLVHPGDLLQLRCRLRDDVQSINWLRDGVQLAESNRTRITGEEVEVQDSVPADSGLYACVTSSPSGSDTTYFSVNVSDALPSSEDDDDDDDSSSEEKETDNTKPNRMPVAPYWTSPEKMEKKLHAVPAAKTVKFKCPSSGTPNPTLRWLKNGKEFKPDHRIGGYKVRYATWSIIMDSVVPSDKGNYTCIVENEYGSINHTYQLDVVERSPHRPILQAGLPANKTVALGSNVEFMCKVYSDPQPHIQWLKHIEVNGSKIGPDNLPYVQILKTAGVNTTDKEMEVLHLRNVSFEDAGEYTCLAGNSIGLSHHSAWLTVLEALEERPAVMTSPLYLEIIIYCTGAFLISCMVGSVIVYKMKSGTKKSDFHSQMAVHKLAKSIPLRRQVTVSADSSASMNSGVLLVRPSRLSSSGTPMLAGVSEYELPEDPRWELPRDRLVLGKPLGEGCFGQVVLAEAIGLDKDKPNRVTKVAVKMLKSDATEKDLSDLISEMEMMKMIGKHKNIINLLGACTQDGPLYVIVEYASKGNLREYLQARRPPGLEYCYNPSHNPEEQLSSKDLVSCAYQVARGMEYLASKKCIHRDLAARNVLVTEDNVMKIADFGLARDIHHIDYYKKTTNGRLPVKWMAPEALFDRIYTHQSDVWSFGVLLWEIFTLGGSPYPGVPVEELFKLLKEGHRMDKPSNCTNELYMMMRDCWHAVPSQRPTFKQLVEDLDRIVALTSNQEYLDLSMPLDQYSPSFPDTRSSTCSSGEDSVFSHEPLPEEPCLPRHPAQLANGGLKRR
FGFR3 kinase, sequence (P22607 23-806): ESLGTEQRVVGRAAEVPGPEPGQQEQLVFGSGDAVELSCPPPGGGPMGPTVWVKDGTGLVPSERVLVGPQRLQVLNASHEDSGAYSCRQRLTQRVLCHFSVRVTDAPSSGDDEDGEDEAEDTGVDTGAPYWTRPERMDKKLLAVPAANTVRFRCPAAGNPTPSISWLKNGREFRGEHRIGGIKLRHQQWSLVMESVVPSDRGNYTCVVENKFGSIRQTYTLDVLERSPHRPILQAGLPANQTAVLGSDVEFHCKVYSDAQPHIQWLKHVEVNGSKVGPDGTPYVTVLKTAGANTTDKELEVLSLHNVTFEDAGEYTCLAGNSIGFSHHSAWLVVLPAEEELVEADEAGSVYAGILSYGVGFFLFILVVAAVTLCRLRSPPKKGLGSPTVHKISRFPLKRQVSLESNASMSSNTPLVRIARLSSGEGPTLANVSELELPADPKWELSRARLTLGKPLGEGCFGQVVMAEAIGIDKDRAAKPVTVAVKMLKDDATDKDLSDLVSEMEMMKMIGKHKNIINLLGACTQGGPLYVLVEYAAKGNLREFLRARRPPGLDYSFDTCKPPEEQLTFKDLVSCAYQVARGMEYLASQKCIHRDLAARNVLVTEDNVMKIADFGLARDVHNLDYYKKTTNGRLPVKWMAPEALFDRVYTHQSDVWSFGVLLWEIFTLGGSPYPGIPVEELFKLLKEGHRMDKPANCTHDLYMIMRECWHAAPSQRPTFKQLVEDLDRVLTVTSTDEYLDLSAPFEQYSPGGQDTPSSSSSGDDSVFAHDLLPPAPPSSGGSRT

Row | Compound | IC50 [2] | IC50 [4] | IC50 ([5]; read-out: FGFR1 (FP) IC50) | IC50 ([6]; read-out: FGFR2 (FP) IC50) | IC50 ([2]; Z-lyte) | IC50 ([5]; FP) | IC50 ([6]; FP) | IC50 [1] | IC50 [3]
1 | CNC(=O)c1cc(COc2cnc(Nc3ccc(C4CCNCC4)cc3)nc2)c(F)c(OC)c1 [Compound 231] | 11 nM | 8 nM | 16 nM | 16 nM |  |  |  | 58 nM | 9 nM
2 | CNC(=O)c1cc(COc2cnc(Nc3cnc(N4C[C@@H](C)N[C@@H](C)C4)c(F)c3)nc2)c(F)c(OC)c1 [Compound 277] | 18 nM | 36 nM | 20 nM | 14 nM |  |  |  | 57 nM | 109 nM
3 | CNC(=O)c1cc(COc2cnc(Nc3cnc(N4C[C@@H](C)N[C@@H](C)C4)c(F)c3)nc2)c(Cl)c(OC)c1 [Compound 292] |  | 17 nM |  |  | 14 nM | 13 nM | 11 nM | 46 nM | 70 nM
4 | CNC(=O)c1cc(COc2cnc(Nc3ccc(N4C[C@@H](C)N(C)[C@@H](C)C4)cc3)nc2)c(Cl)c(OC)c1 [Compound 286] |  | 16 nM |  |  | 9 nM | 7 nM | 6 nM | 8 nM | 43 nM
5 | CNC(=O)c1cc(COc2cnc(Nc3ccc(N4CCN(C)CC4)c(OC)c3)nc2)c(Cl)c(OC)c1 [Compound 288] |  | 2 nM |  |  | 4 nM | 6 nM | 4 nM | 2 nM | 3 nM
6 | CCN1CCN(c2ccc(Nc3ncc(OCc4cc(C(=O)NC)cc(OC)c4Cl)cn3)cn2)CC1 [Compound 272] | 8 nM | 15 nM | 10 nM | 9 nM |  |  |  | 18 nM | 31 nM

Now from value to compound, other results behind:

Row | IC50 [2] | IC50 [4] | IC50 ([5]; read-out: FGFR1 (FP) IC50) | IC50 ([6]; read-out: FGFR2 (FP) IC50) | IC50 ([2]; Z-lyte) | IC50 ([5]; FP) | IC50 ([6]; FP) | Compound | IC50 [1] | IC50 [3]
7 | 65 nM | 72 nM | 44 nM | 20 nM |  |  |  | CNC(=O)c1cc(COc2cnc(Nc3ccc(C(C)=O)cc3)nc2)c(F)c(OC)c1 [Compound 215] | 26 nM | 127 nM
8 | 20 nM | 51 nM | 29 nM | 18 nM |  |  |  | CNC(=O)c1cc(COc2cnc(Nc3ccc(-n4cnnc4)cc3)nc2)c(F)c(OC)c1 [Compound 223] | 102 nM | 729 nM
9 | 16 nM | 8 nM | 21 nM | 22 nM |  |  |  | CCN1CCC(c2ccc(Nc3ncc(OCc4cc(C(=O)NC)cc(OC)c4F)cn3)cc2)CC1 [Compound 252] | 28 nM | 6 nM
10 | 11 nM | 14 nM | 26 nM | 15 nM |  |  |  | CNC(=O)c1cc(COc2cnc(Nc3ccc(CCN(C)C)cc3)nc2)c(F)c(OC)c1 [Compound 225] | 7 nM | 21 nM
11 | 26 nM | 59 nM | 17 nM | 13 nM |  |  |  | CNC(=O)c1cc(CCc2cnc(Nc3ccc(O)cc3)nc2)c(Cl)c(OC)c1 [Compound 81] | 26 nM | 133 nM
12 | 39 nM | 22 nM | 100 nM | 40 nM |  |  |  | CCN1CCC(c2ccc(Nc3ncc(OCc4cc(C(=O)NC)cc(OC)c4F)cn3)cn2)CC1 [Compound 256] | 202 nM | 57 nM
13 | 49 nM | 43 nM | 31 nM | 12 nM |  |  |  | CNC(=O)c1cc(CCc2cnc(Nc3ccc(C(C)(C)C#N)nc3)nc2)c(F)c(OC)c1 [Compound 142] | 64 nM | 127 nM
14 | 177 nM | 115 nM | 24 nM | 13 nM |  |  |  | C#Cc1cccc(Nc2ncc(OCc3cc(C(=O)NC)cc(OC)c3F)cn2)c1 [Compound 210] | 166 nM | 305 nM
